Results reported in US20180230160A1, “2-AMINO-7A-PHENYL-3,4,4A,5,7,7A-HEXAHYDROFURO[3,4-B]PYRIDINES AS BACE1 INHIBITORS” (H. Lundbeck A/S, priority 2015, published 2018).

Assays:
P-gp (MDR1) = experiment: MDCK-MDR1 assay (permeability, efflux ratio); assay type: in vitro ADME; details: dog, Papp BA/Papp AB, 60-minute incubation
Experimental: The permeability of the test compounds was assessed in MDCK-MDR1 cells that were cultured to confluency (4-6 days) in a 96 transwell plate. Test compounds were diluted with the transport buffer (HBSS+1% BSA) to a concentration of 0.5 μM and applied to the apical or basolateral side of the cell monolayer. Permeation of the test compounds from A to B direction or B to A direction was determined in triplicate over a 60-minute incubation time at 37° C. and 5% CO2 with a relative humidity of 95%. Test compounds were quantified by LC-MS/MS analysis based on the peaks area ratios of analyte/IS in both the receiver and donor wells of the transwell plate. The apparent permeability coefficient Papp (cm/s) was calculated using the equation: […]
Where dCr/dt is the cumulative concentration of compound in the receiver chamber as a function of time (μM/s); Vr is the solution volume in the receiver chamber (0.05 mL on the apical side; 0.25 mL on the basolateral side); A is the surface area for the transport, i.e. 0.0804 cm^2 for the area of the monolayer; CO is the initial concentration in the donor chamber (μM).

human BACE1 [1] = target: T1, human BACE1 (Homo sapiens, UniProt P56817); experiment: BACE1 efficacy assay (FRET-based, commercial BACE1 kit); assay type: biochemical; design: purchased Life Technologies P2985; details: 10 μM test compound
Experimental: The efficacy assay was performed as a FRET-based assay using a commercially available BACE1 kit (Life Technologies, P2985). 2 μl test compound at 10 μM (final concentration) and 15 μl BACE1 enzyme from the kit (final concentration 3 nM) were preincubated for 15 minutes at room temperature before addition of 15 μl of substrate from the kit (250 nM final concentration) and incubated for additional 90 minutes at room temperature. The assay plate was subsequently read in a Pherastar (Ex540/Em590). The enzyme activity observed in presence of test compound were normalized to the enzyme activity observed in presence of buffer and 10 μM (final concentration) of the high affinity BACE1 reference inhibitor (S)-6-[3-Chloro-5-(5-prop-1-ynyl-pyridin-3-yl)-thiophen-2-yl]-2-imino-3,6-dimethyl-tetrahydropyrimidin-4-one, respectively. The efficacy of the test compounds was evaluated at 10 μM (final concentration) and defined as the percent inhibition of the enzyme activity using the equation % inhibition=100%−normalized enzyme activity in percent.

human BACE1 [2] = target: T1, human BACE1; experiment: BACE1 binding assay (SPA-based radioligand binding); design: biotin (biotinylated form); made in house; host or cells: Freestyle HEK293 cells; details: pH 4.5, 10 nM radioligand, Ki=IC50/(1+L/Kd)
Experimental: The binding assay was performed as SPA-based assay using a biotinylated form of human BACE1 recombinantly expressed and subsequently purified from Freestyle HEK293 cells. The binding assay was run in a 50 mM sodium acetate buffer, pH 4.5 containing 50 mM NaCl and 0.03% Tween-20 in white clear bottom 384 plates (Corning #3653). 10 nM (final concentration) radioligand ([^3H]—N-((1S,2R)-1-benzyl-3-cyclopropylamino-2-hydroxy-propyl)-5-(methanesulfonyl-methyl-amino)-N—((R)-1-phenyl-ethyl)-isophthalamide) (TRQ11569 purchased from GE Healthcare) was mixed with test compound at a given concentration, 6 nM (final concentration) human BACE1 and 25 μg Streptavidin coated PVT core SPA beads (RPNQ0007, GE Healthcare Life Sciences) in a total volume of 40 μl. Several concentrations of each test compound were tested in the assay for […] determination. The plates were incubated for one hour at room temperature and counted in a Wallac Trilux counter. Total and non-specific binding were determined using buffer and 1 μM (final concentration) of the high affinity BACE1 reference inhibitor (S)-6-[3-chloro-5-(5-prop-1-ynyl-pyridin-3-yl)-thiophen-2-yl]-2-imino-3,6-dimethyl-tetrahydro-pyrimidin-4-one, respectively. For each test compound, a 1050 value (the concentration mediating 50% inhibition of the specific binding of the radioligand) was determined from concentration-response curve and used to calculate the Ki from the equation Ki=IC50/(1+L/Kd), where L and Kd are the final concentration of the radioligand used in the assay and the dissociation constant of the radioligand, respectively. The Kd of the radioligand was determined from saturation binding experiments.

T1 sequence (P56817 46-501): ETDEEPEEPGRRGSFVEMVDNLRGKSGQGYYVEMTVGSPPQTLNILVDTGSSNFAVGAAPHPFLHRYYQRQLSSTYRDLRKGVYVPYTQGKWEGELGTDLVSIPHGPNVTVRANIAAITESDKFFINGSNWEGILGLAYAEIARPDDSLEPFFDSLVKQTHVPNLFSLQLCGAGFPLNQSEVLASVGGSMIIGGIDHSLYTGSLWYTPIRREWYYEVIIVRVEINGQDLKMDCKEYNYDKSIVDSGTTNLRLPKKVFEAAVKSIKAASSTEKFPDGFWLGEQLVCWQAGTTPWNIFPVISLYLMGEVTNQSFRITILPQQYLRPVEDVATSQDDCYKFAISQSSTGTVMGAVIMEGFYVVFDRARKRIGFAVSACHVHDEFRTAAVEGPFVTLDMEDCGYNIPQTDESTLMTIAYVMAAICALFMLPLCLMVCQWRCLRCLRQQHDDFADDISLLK

| SMILES | efflux ratio at 60 min, 0.5 μM (P-gp (MDR1)) | inhibition at 10 µM (human BACE1 [1]) [%] | Ki (human BACE1 [2]) [nM] |
| --- | --- | --- | --- |
| COc1ccc(C(=O)Nc2ccc(F)c([C@]34COC[C@H]3C[C@@](F)(CF)C(N)=N4)c2)nc1 [Example 21, N-(3-((3S,4aS,7aS)-2-amino-3-fluoro-3-(fluoromethyl)-3,4,4a,5,7,7a-hexahydrofuro[3,4-b]pyridin-7a-yl)-4-fluorophenyl)-5-methoxypicolinamide] | 0.61 | 103 | 55 |
| NC1=N[C@@]2(c3cc(NC(=O)c4ccc(F)cn4)cc(F)c3F)COC[C@H]2C[C@@]1(F)CF [Example 23, N-[3-[(3S,4aS,7aS)-2-amino-3-fluoro-3-(fluoromethyl)-4,4a,5,7-tetrahydrofuro[3,4-b]pyridin-7a-yl]-4,5-difluoro-phenyl]-5-fluoro-pyridine-2-carboxamide] | 0.89 | 103 | 200 |
| COc1cnc(C(=O)Nc2cc(F)c(F)c([C@]34COC[C@H]3C[C@@](F)(CF)C(N)=N4)c2)cn1 [Example 24, N-[3-[(3S,4aS,7aS)-2-amino-3-fluoro-3-(fluoromethyl)-4,4a,5,7-tetrahydrofuro[3,4-b]pyridin-7a-yl]-4,5-difluoro-phenyl]-5-methoxy-pyrazine-2-carboxamide] | 0.82 | 103 | 130 |
